For one series, the target named is T1, WDR5 (Homo sapiens, UniProt P61964).
T1 construct: N-terminal His-tagged WDR5 protein (residues 24-334), named WDR5Δ23; made in house; host or cells: E. coli Rosetta 2 (DE3)
The series can be described thus: fluorescence polarization (FP) based competitive binding assay to WDR5 protein.

Series [1] has as its system HL-60 leukemia cells carrying no MLL fusion. The series can be described thus: cell viability assay (WST-8), HL-60. The series is classed as cell-based. The conditions noted are these: Homo sapiens, HL-60, 96 h, read-out: Cell Growth Inhibition IC50 (μM) HL-60. The method, then:
Cell viability was determined using the WST-8 cell proliferation assay kit (Dojindo Molecular Technologies) according to manufacturer's instructions. Three independent experiments in triplicates were performed.

The subject of series [2] is MOLM-13 leukemia cells carrying MLL-AF9 fusion. The series can be described thus: cell viability assay (WST-8), MOLM-13. The conditions noted are these: Homo sapiens, MOLM-13, 96 h, read-out: Cell Growth Inhibition IC50 (μM) MOLM-13. The series is classed as cell-based.
For series [3], the system named is MV4;11 leukemia cells carrying MLL-AF4 fusion. Briefly: cell viability assay (WST-8), MV4;11. The series is classed as cell-based. To be noted: Homo sapiens, MV4-11, 96 h, read-out: Cell Growth Inhibition IC50 (μM) MV-4-11. On the technique in general: Tetrazolium assays rely on reduction of a dye to a coloured formazan, in cell work by metabolically active cells.
Description: To assess cell viability, MOLM-13 leukemia cells carrying MLL-AF9 fusion, MV4;11 leukemia cells carrying MLL-AF4 fusion or HL-60 leukemia cells carrying no MLL fusion were seeded 1×10^4 cell/well in 96-well plates and treated with an inhibitor for 4 days at different concentrations, in culture media containing 0.2% DMSO as the final concentration. Cell viability was determined using the WST-8 cell proliferation assay kit (Dojindo Molecular Technologies) according to manufacturer's instructions. Three independent experiments in triplicates were performed.

[4] abbreviates: calculated from IC50 by published equation, read-out: Binding Affinity to WDR5 Ki ± SD.
The mark [5] stands for this setting: read-out: Binding Affinity to WDR5 IC50 ± SD.
Where [6] appears, read: amide bond, 14-membered ring, HATU/DIEA, DMF, with chain assembly.

Read-outs that look alike come from different tables or passages of the source. Starred links: 1 amine or outer side, 2 acyl side, 3 side chain; linkers in the order of their positions; H or OH if unused. Positions of bridges follow the written chain, without caps; N, C: chain ends. Non-standard residues stand in square brackets, D forms with d. Residues, ends and D or L forms follow the SMILES beside them. *: point of attachment. dαMeLys(Me) = CN(CCCC[C@@](C)(N[*:1])C(=O)[*:2])[*:3]; dαMeDab = C[C@](CCN[*:3])(N[*:1])C(=O)[*:2]; Arg(Me2s) = CN=C(NC)NCCC[C@H](N)C(=O)O; dPhg(4-F) = N[C@@H](C(=O)O)c1ccc(F)cc1; Arg(Me) = CNC(=N)NCCC[C@H](N)C(=O)O; d(αMeOrn) = C[C@@](N)(CCCN)C(=O)O; d(αMeK) = C[C@@](N)(CCCCN)C(=O)O; dPhg = N[C@@H](C(=O)O)c1ccccc1; Phg = N[C@H](C(=O)O)c1ccccc1; αMeK = C[C@](N)(CCCCN)C(=O)O; Isobutyryl = CC(C)C(=O)*; dAbu = CC[C@@H](N)C(=O)O; Abu = CC[C@H](N)C(=O)O

Here are results for 18 compounds from US20210130401A1, “PEPTIDOMIMETIC INHIBITORS OF THE WDR5-MLL INTERACTION” (THE REGENTS OF THE UNIVERSITY OF MICHIGAN, priority 2017, published 2021).

Description for WDR5: The plates were incubated at room temperature on a shaker for 3h, and then the mP values were measured using the Tecan Infinite M-1000 plate reader (Tecan U.S., Research Triangle Park, N.C.).

A word on the Ki: it is a measure of affinity in units of concentration, obtained from inhibition or displacement. Usually IC50 stands for the concentration needed to halve the response being measured. `CC[C@@H]1NC(=O)[C@H](CCCNC(=N)N)NC(=O)[C@](C)(NC(=O)C(C)C)CCCNC(=O)[C@@H](c2ccccc2)NC1=O` [Cpd. No. 74, N-((3R,6S,9S,12R)-6-ethyl-9-(3-guanidinopropyl)-12-methyl-2,5,8,11-tetraoxo-3-phenyl-1,4,7,10-tetraazacyclopentadecan-12-yl)isobutyramide] (Isobutyryl-[d(αMeOrn)]R[Abu][dPhg]; lactam 1-C): the Ki on WDR5 (setting [4]) was under 1 nM. The IC50 at WDR5 (setting [5]) was determined as 0.97 ± 0.13 nM; in series [1] (4 days treatment) it was 46.8 µM; in series [2] (4 days treatment), 1.28 ± 0.01 µM; in series [3] (4 days treatment), 1.29 µM.

As for `CC[C@@H]1NC(=O)[C@H](CCCNC(=N)N)NC(=O)[C@](C)(NC(=O)C(C)C)CCCCNC(=O)[C@@H](c2ccccc2)NC1=O` [Cpd. No. 64, N-((3R,6S,9S,12R)-6-ethyl-9-(3-guanidinopropyl)-12-methyl-2,5,8,11-tetraoxo-3-phenyl-1,4,7,10-tetraazacyclohexadecan-12-yl)isobutyramide] (Isobutyryl-[d(αMeK)]R[Abu][dPhg]; lactam 1-C), the IC50 in series [1] is over 100 µM.

In the case of `CC[C@@H]1NC(=O)[C@H](CCCNC(=N)N)NC(=O)[C@](C)(NC(=O)C(C)C)CCCCCNC(=O)[C@@H](c2ccccc2)NC1=O` [Cpd. No. 75, N-((3R,6S,9S,12R)-6-ethyl-9-(3-guanidinopropyl)-12-methyl-2,5,8,11-tetraoxo-3-phenyl-1,4,7,10-tetraazacycloheptadecan-12-yl)isobutyramide], the Ki on WDR5 (setting [4]) is under 1 nM. The IC50 is 2.6 ± 0.2 nM at WDR5 (setting [5]), over 100 µM in series [1] (4 days treatment), 37.6 ± 12.1 µM in series [2] (4 days treatment) and 15.1 ± 11.8 µM in series [3] (4 days treatment).

The compound `CC[C@@H]1NC(=O)[C@H](CCCNC(=N)NS(=O)(=O)c2c(C)c(C)c3c(c2C)CC(C)(C)O3)NC(=O)[C@](C)(NC(=O)C(C)C)CC=CCN(C)C(=O)[C@@H](c2ccccc2)NC1=O` registered a ring closure, yield after HPLC (from (R)—N-((6S,9S,12R)-9-ethyl-1-imino-14-methyl-7,10,13-trioxo-1-(2,2,4,6,7-pentamethyl-2,3-dihydrobenzofuran-5-sulfonamido)-12-phenyl-2,8,11,14-tetraazaheptadec-16-en-6-yl)-2-isobutyramido-2-methylpent-4-enamide, rcm bond, 16-membered ring, Hoveyda-Grubbs II (0.5+0.5 eq), CH2Cl2, 45.0 °C, 3 steps) of 18%.

`CC[C@@H]1NC(=O)[C@H](CCCNC(=N)NC)NC(=O)[C@](C)(NC(=O)C(C)C)CCNC(=O)[C@H](c2ccccc2)NC1=O` [Cpd. No. 62, N-((3S,6S,9S,12R)-6-ethyl-12-methyl-9-(3-(3-methylguanidino)propyl)-2,5,8,11-tetraoxo-3-phenyl-1,4,7,10-tetraazacyclotetradecan-12-yl)isobutyramide] (Isobutyryl-[dαMeDab][Arg(Me)][Abu][Phg]; lactam 1-C): the Ki at WDR5 (setting [4]) is under 1 nM. The values for the IC50 (on WDR5 (setting [5]); in series [2] (4 days treatment); in series [3] (4 days treatment)) were 2 ± 0.1 nM, 14.3 ± 0.9 µM and 35 ± 4.4 µM, respectively.

On to `CC[C@@H]1NC(=O)[C@H](CCCNC(=N)N)NC(=O)[C@](C)(NC(=O)C(C)C)CCNC(=O)[C@@H](c2ccccc2)NC1=O` [Cpd. No. 4, N-((3R,6S,9S,12R)-6-ethyl-9-(3-guanidinopropyl)-12-methyl-2,5,8,11-tetraoxo-3-phenyl-1,4,7,10-tetraazacyclotetradecan-12-yl)isobutyramide] (Isobutyryl-[dαMeDab]R[Abu][dPhg]; lactam 1-C), for which the Ki at WDR5 (setting [4]) was under 1 nM. For the same compound, the IC50 on WDR5 (setting [5]) was determined as 1.08 ± 0.12 nM; in series [1] (4 days treatment), 17.4 µM; in series [2] (4 days treatment), 0.28 ± 0.02 µM; in series [3] (4 days treatment), 0.46 ± 0.02 µM.

For the compound `CC[C@H]1NC(=O)[C@@H](CCCNC(=N)N)NC(=O)[C@@](C)(NC(=O)C(C)C)CCCCNC(=O)[C@H](c2ccccc2)NC1=O` [Cpd. No. 70, N-((3S,6R,9R,12S)-6-ethyl-9-(3-guanidinopropyl)-12-methyl-2,5,8,11-tetraoxo-3-phenyl-1,4,7,10-tetraazacyclohexadecan-12-yl)isobutyramide] (Isobutyryl-[αMeK][dR][dAbu][Phg]; lactam 1-C), the IC50 in series [1], in series [2] and in series [3] was over 100 µM in each case.

`CC[C@@H]1NC(=O)[C@H](CCCNC(=N)NS(=O)(=O)c2c(C)c(C)c3c(c2C)CC(C)(C)O3)NC(=O)[C@](C)(NC(=O)C(C)C)CC=CCCCNC(=O)[C@@H](c2ccccc2)NC1=O` gave a ring closure, yield after HPLC (from iPrCO-(R)-αMe-allylGly-Arg(Pbf)-Abu-dPhg-NH-(pent-4-enyl)?, rcm bond, 18-membered ring, Hoveyda-Grubbs II (0.5 eq), CH2Cl2, 25.0 °C, 3 steps) of 46%.

`CC[C@@H]1NC(=O)[C@H](CCCN/C(=N\C)NC)NC(=O)[C@](C)(NC(=O)C(C)C)CC=CCNC(=O)[C@@H](c2ccccc2)NC1=O` returned a ring closure, yield after HPLC (from (R)—N-((8S,11S,14R,Z)-11-ethyl-3-(methylamino)-9,12,15-trioxo-14-phenyl-2,4,10,13,16-pentaazanonadeca-2,18-dien-8-yl)-2-isobutyramido-2-methylpent-4-enamide, rcm bond, 16-membered ring, Hoveyda-Grubbs II (0.5 eq), CH2Cl2, 25.0 °C, 3 steps) of 27%.

“N-((3R,6S,9S,12R)-6-ethyl-9-(3-guanidinopropyl)-2,5,8,11-tetraoxo-3-phenyl-1,4,7,10-tetraazacyclotetradecan-12-yl)isobutyramide” registered a ring closure, yield after HPLC under setting [6] of 21.7%.

Under setting [6], “N-((3R,6S,12R)-6-ethyl-12-methyl-2,5,8,11-tetraoxo-9-phenethyl-3-phenyl-1,4,7,10-tetraazacyclotetradecan-12-yl)isobutyramide” came in with a ring closure, yield after HPLC of 7%.

“N-((3R,6S,12R)-9-(3-amino-3-oxopropyl)-6-ethyl-12-methyl-2,5,8,11-tetraoxo-3-phenyl-1,4,7,10-tetraazacyclotetradecan-12-yl)isobutyramide” showed a ring closure, yield after HPLC under setting [6] of 17%.

Turning to `CC[C@@H]1NC(=O)[C@H](CCCNC(=N)NC)NC(=O)[C@](C)(NC(=O)C(C)C)CCCCNC(=O)[C@@H](c2ccccc2)NC1=O` [Cpd. No. 68, N-((3R,6S,9S,12R)-6-ethyl-12-methyl-9-(3-(3-methylguanidino)propyl)-2,5,8,11-tetraoxo-3-phenyl-1,4,7,10-tetraazacyclohexadecan-12-yl)isobutyramide] (Isobutyryl-[d(αMeK)][Arg(Me)][Abu][dPhg]; lactam 1-C), the IC50 at WDR5 was 1.1 ± 0.3 nM; in series [1] it was over 100 µM; in series [2] it was 3.6 ± 0.8 µM; in series [3] it was 4.3 ± 1.5 µM. The Ki at WDR5 was under 1 nM.

Take `CC[C@@H]1NC(=O)[C@H](CCCNC(=N)NS(=O)(=O)c2c(C)c(C)c3c(c2C)CC(C)(C)O3)NC(=O)[C@](C)(NC(=O)C(C)C)CC=CCNC(=O)[C@@H](c2ccccc2)NC1=O`: the ring closure, yield after HPLC (from iPrCO-(R)-αMe-allylGly-Arg(Pbf)-Abu-dPhg-NH-allyl?, rcm bond, 16-membered ring, Hoveyda-Grubbs II (0.5 eq), CH2Cl2, 25.0 °C, 3 steps) amounted to 53%.

In the case of `CC[C@@H]1NC(=O)[C@H](CCCN/C(=N/C)NC)NC(=O)[C@](C)(NC(=O)C(C)C)CCCCNC(=O)[C@@H](c2ccccc2)NC1=O` [Cpd. No. 69, N-((3R,6S,9S,12R)-9-(3-((E)-2,3-dimethylguanidino)propyl)-6-ethyl-12-methyl-2,5,8,11-tetraoxo-3-phenyl-1,4,7,10-tetraazacyclohexadecan-12-yl)isobutyramide] (Isobutyryl-[d(αMeK)][Arg(Me2s)][Abu][dPhg]; lactam 1-C), the IC50 was determined as 2.4 ± 0.7 nM on WDR5, 84.8 ± 13.2 µM in series [1], 31.5 ± 9.8 µM in series [2] and 15.2 ± 2.9 µM in series [3]. For the same compound, the Ki at WDR5 was under 1 nM.

Under “amide bond, 13-membered ring, HATU/DIEA, DMF, with chain assembly”, “N-((3R,6S,9S,12R)-6-ethyl-9-(3-guanidinopropyl)-2,5,8,11-tetraoxo-3-phenyl-1,4,7,10-tetraazacyclotridecan-12-yl)isobutyramide” returned a ring closure, yield after HPLC of 24.5%.

The compound “N-((3R,6S,9S,12R)-6-ethyl-9-(3-guanidinopropyl)-2,5,8,11-tetraoxo-3-phenyl-1,4,7,10-tetraazacyclopentadecan-12-yl)isobutyramide” yielded a ring closure, yield after HPLC (amide bond, 15-membered ring, HATU/DIEA, DMF, with chain assembly) of 21.5%.

As for `CC[C@@H]1NC(=O)[C@H](CCCNC(=N)N)NC(=O)[C@](C)(NC(=O)C(C)C)CCCCN(C)C(=O)[C@@H](c2ccc(F)cc2)NC1=O` [Cpd. No. 66, N-((3R,6S,9S,12R)-6-ethyl-3-(4-fluorophenyl)-9-(3-guanidinopropyl)-1,12-dimethyl-2,5,8,11-tetraoxo-1,4,7,10-tetraazacyclohexadecan-12-yl)isobutyramide] (Isobutyryl-[dαMeLys(Me)]R[Abu][dPhg(4-F)]; lactam 1-C), the concentration for half-maximal inhibition (IC50) on WDR5 came to 1.6 ± 1 nM; in series [1], 60 ± 19.7 µM; in series [2], 16.2 ± 6.1 µM; in series [3], 5.2 ± 1.1 µM. On WDR5, this compound registered a Ki of under 1 nM.
